Source: article PMC7747594, “Protease-activated receptor-2 ligands reveal orthosteric and allosteric mechanisms of receptor inhibition” (Communications Biology, 2020)
“And” between values parts separate entries of the source, which are not always exact repeats. Identical values can stand only once.

Columns and labels:
Format in all cases: cell-based
parental 1321N1 cells = assay: Ca^2+ flux assay, agonist mode, parental 1321N1 cells; set-up: Ca2+ response (Fig 2c), individual replicate values: unit not given here; settings: for Ca2+ response (Fig 2c), individual replicate values: control
Description: Cells were loaded with Fluo-8 NW calcium dye (AAT Bioquest) for 30 min at 37 °C before compounds in Hank’s balanced salt solution (HBSS, ThermoFisher Scientific) with 20 mM HEPES (ThermoFisher Scientific), 0.1% bovine serum albumin (BSA, Sigma) and 0.5% DMSO were added and simultaneously evaluated for changes in intracellular [Ca^2+] using FLIPR TETRA (Molecular Devices) to detect agonism. For each concentration, the difference between the maximum peak Ca^2+ response and baseline response is reported. […] Antagonism experiments were also carried out on 1321N1-PAR2[WT], 1321N1-PAR2[F154A], and 1321N1-PAR2[G157C] as described. Experiments with trypsin in 1321N1-hPAR2 cells were performed in the presence of 1 µM Vorapaxar (Chemtronica) to remove any interference of PAR1 activity. […] Antagonism experiments for CHO-hPAR2 and HT-29 cells were performed in 96-well plates at 30,000 cells/well. Cells were loaded with Fluo-3 AM calcium dye (Sigma-Aldrich) for 60 min at 37 °C in HBSS with 1% FBS, 0.2% pluronic acid, 20 mM HEPES and 2.5 mM probenecid prior to the addition of antagonist. The antagonist was pre-incubated for 60 min at 37 °C followed by the addition of bovine trypsin (30 nM) at EC80. Intracellular [Ca^2+] flux was measured using FLIPR TETRA (Molecular Devices) and the difference between the maximum peak Ca^2+ response and baseline response is reported.

PAR1 (F2R) = biological target: T1, PAR1 (F2R) (Homo sapiens, UniProt P25116); assay: β-arrestin recruitment, DiscoverX profiling service, PAR1
T1 sequence (P25116 22-425): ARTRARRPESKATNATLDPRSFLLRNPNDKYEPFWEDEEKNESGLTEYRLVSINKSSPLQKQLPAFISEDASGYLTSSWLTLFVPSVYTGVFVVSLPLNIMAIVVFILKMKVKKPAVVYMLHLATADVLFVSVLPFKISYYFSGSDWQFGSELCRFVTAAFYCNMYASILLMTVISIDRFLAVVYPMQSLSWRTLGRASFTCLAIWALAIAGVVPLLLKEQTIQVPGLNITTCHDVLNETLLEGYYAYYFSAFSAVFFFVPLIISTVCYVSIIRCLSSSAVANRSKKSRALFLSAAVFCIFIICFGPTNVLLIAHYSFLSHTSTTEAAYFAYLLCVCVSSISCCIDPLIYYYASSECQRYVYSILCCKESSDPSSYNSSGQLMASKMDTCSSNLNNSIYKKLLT

hPAR2 [1] = biological target: T2, hPAR2 (Homo sapiens, UniProt P55085); assay: pERK1/2 assay, agonist mode, U2OS-hPAR2 cells; set-up: agonist response (Fig 2e), individual replicate values: unit not given here
T2 sequence (P55085 26-397): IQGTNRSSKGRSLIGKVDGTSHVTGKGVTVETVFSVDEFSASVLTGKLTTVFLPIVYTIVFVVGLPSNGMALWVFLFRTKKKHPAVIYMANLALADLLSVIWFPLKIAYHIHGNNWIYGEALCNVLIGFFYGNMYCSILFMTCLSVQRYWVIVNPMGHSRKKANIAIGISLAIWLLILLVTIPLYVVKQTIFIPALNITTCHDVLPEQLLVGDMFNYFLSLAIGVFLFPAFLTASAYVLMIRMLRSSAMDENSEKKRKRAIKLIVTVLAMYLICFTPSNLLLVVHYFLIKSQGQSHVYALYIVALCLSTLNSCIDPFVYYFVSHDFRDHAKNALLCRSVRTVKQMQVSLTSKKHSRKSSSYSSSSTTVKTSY

hPAR2 [2] = biological target: T2, hPAR2; assay: β-arrestin-2 recruitment, agonist mode, U2OS-hPAR2 cells; set-up: agonist response (Fig 2f), individual replicate values: unit not given here
hPAR2 [3] = biological target: T2, hPAR2; assay: IP1 assay, agonist mode, 1321N1-hPAR2 cells

CNC(=O)[C@H]1CC[C@@H](NC(=O)[C@H](CC2CCCCC2)NC(=O)c2cn(Cc3ccccc3)nn2)c2ccccc21 [AZ2429]
Ca^2+ mobilisation in parental 1321N1 cells (parental 1321N1 cells): No Ca^2+ mobilisation could be detected | Ca2+ response (Fig 2c), individual replicate values (parental 1321N1 cells; [compound],M -4.30103): -0.222 and -3.029 and 1.6687 and -8.186 | Ca2+ response (Fig 2c), individual replicate values (parental 1321N1 cells; [compound],M -4.77815): -2.571 and -2.17 and -0.3366 and -1.253 | Ca2+ response (Fig 2c), individual replicate values (parental 1321N1 cells; [compound],M -5.25527): 2.7 and 1.783 and -0.795 and 0.5801 | Ca2+ response (Fig 2c), individual replicate values (parental 1321N1 cells; [compound],M -5.73239): 1.6114 and 0.4655 and 2.528 and 1.21 | Ca2+ response (Fig 2c), individual replicate values (parental 1321N1 cells; [compound],M -6.20952): -1.884 and -0.222 and -1.998 and 1.6114 | Ca2+ response (Fig 2c), individual replicate values (parental 1321N1 cells; [compound],M -6.68664): 5.507 and 2.986 and 0.6947 and 2.299 | Ca2+ response (Fig 2c), individual replicate values (parental 1321N1 cells; [compound],M -7.16376): 5.851 and 0.8093 and -0.4512 and 3.674 | Ca2+ response (Fig 2c), individual replicate values (parental 1321N1 cells; [compound],M -7.64088): -0.2793 and 2.6427 and 2.471 and 0.06446 | Ca2+ response (Fig 2c), individual replicate values (parental 1321N1 cells; [compound],M -8.118): -2.571 and 1.726 and 3.502 and 0.5801 | Ca2+ response (Fig 2c), individual replicate values (parental 1321N1 cells; [compound],M -8.59512): -3.717 and -6.009 and -11.1079 and -4.175 | Max Response (PAR1 (F2R); Arrestin, Agonist format, F2R): 0% | EC50 (PAR1 (F2R); Arrestin, Agonist format, F2R, read-out: RC50 (EC50)): > 50000 nM | Max Response (PAR1 (F2R); Arrestin, Antagonist format, F2R): 0% | IC50 (PAR1 (F2R); Arrestin, Antagonist format, F2R, read-out: RC50 (IC50)): > 50000 nM | activity against PAR1 in β-arrestin-2 recruitment assay (PAR1 (F2R); DiscoverX profiling service): No AZ2429 activity was detected | EC50 (hPAR2 [1]; U2OS-hPAR2, mean ± s.e.m., read-out: pERK1/2 pEC50 (converted)): 39.8 nM | agonist response (Fig 2e), individual replicate values (hPAR2 [1]; [compound],M -4.52288): 92.0141 and 74.7053 and 111.675 and 66.5866 and 60.3473 and 74.0471 and 117.965 and 130.52 and 124.805 and 98.7887 and 171.327 and 138.91 | agonist response (Fig 2e), individual replicate values (hPAR2 [1]; [compound],M -5): 145.403 and 95.3612 and 122.434 and 53.1755 and 72.071 and 69.3732 and 123.833 and 115.408 and 143.854 and 198.596 and 120.076 and 126.959 | agonist response (Fig 2e), individual replicate values (hPAR2 [1]; [compound],M -5.47712): 102.451 and 94.8209 and 99.914 and 62.5677 and 62.1847 and 84.7772 and 121.954 and 124.064 and 131.389 and 108.103 and 101.197 and 120.75 | agonist response (Fig 2e), individual replicate values (hPAR2 [1]; [compound],M -5.95424): 89.9122 and 82.9611 and 84.3447 and 63.5614 and 54.0303 and 47.0028 and 93.3928 and 116.239 and 97.5862 and 98.4234 and 105.569 and 117.075 | agonist response (Fig 2e), individual replicate values (hPAR2 [1]; [compound],M -6.43136): 89.3258 and 69.9482 and 44.5682 and 54.9685 and 62.0293 and 44.3162 and 80.2501 and 88.0999 and 54.8467 and 72.3986 and 88.607 and 61.7832 | agonist response (Fig 2e), individual replicate values (hPAR2 [1]; [compound],M -6.90849): 70.3304 and 41.0432 and 36.2531 and 47.5801 and 30.25 and 29.0399 and 34.5189 and 34.3783 and 18.7041 and 36.9798 and 32.4711 and 22.2209 | agonist response (Fig 2e), individual replicate values (hPAR2 [1]; [compound],M -7.38561): 20.4269 and 21.9818 and 16.3418 and 12.8089 and 11.7486 and 24.5769 and 9.704 and 15.3673 and 6.674 and 12.0051 and 3.09 and 15.3723 | agonist response (Fig 2e), individual replicate values (hPAR2 [1]; [compound],M -7.86273): 4.95 and -1.995 and 15.7225 and 4.505 and 8.124 and 3.783 and 3.311 and 7.198 and -0.6009 and -4.9 and 2.6 and 2.634 | agonist response (Fig 2e), individual replicate values (hPAR2 [1]; [compound],M -8.33985): 2.5581 and 8.989 and 6.59 and 1.141 | EC50 (hPAR2 [2]; U2OS-hPAR2, mean ± s.e.m., read-out: β-arrestin pEC50 (converted)): 251 nM | agonist response (Fig 2f), individual replicate values (hPAR2 [2]; [compound],M -4.52288): 136.003 and 128.564 and 133.913 and 56.5764 and 110.418 and 80.4631 and 65.432 and 80.8727 and 70.3477 and 91.7141 and 102.077 and 89.1574 | agonist response (Fig 2f), individual replicate values (hPAR2 [2]; [compound],M -5): 131.19 and 120.248 and 136.172 and 56.4288 and 102.534 and 68.8992 and 68.7979 and 70.6147 and 68.8215 and 77.979 and 96.7821 and 92.1516 | agonist response (Fig 2f), individual replicate values (hPAR2 [2]; [compound],M -5.47712): 112.303 and 119.541 and 118.68 and 44.4899 and 108.952 and 63.9568 and 68.1752 and 70.9487 and 60.988 and 94.267 and 96.9331 and 92.4234 | agonist response (Fig 2f), individual replicate values (hPAR2 [2]; [compound],M -5.95424): 118.57 and 119.322 and 126.112 and 66.9594 and 124.296 and 94.3698 and 67.5375 and 74.2944 and 72.0498 and 104.83 and 109.824 and 109.97 | agonist response (Fig 2f), individual replicate values (hPAR2 [2]; [compound],M -6.43136): 125.477 and 105.411 and 104.73 and 109.603 and 104.761 and 111.037 and 54.7204 and 64.3421 and 52.5276 and 82.0218 and 82.1308 and 78.7213 | agonist response (Fig 2f), individual replicate values (hPAR2 [2]; [compound],M -6.90849): 100.424 and 92.4091 and 99.838 and 93.2711 and 86.5209 and 104.138 and 29.1218 and 35.2385 and 27.4797 and 47.1154 and 56.0608 and 47.0166 | agonist response (Fig 2f), individual replicate values (hPAR2 [2]; [compound],M -7.38561): 86.365 and 78.1735 and 66.0975 and 85.2162 and 75.5111 and 91.061 and 20.8827 and 22.73 and 14.0732 and 38.9752 and 29.9961 and 25.8403 | agonist response (Fig 2f), individual replicate values (hPAR2 [2]; [compound],M -7.86273): 50.0191 and 38.4004 and 28.0445 and 63.4341 and 52.1546 and 58.7101 and 8.067 and 10.1642 and 0.7234 and 8.708 and 10.6741 and 5.686 | agonist response (Fig 2f), individual replicate values (hPAR2 [2]; [compound],M -8.33985): 11.2254 and 10.5953 and 6.644 and 26.1895 | more potent than SLIGKV-NH2, IP1 accumulation (hPAR2 [3]; 1321N1-hPAR2): 120 fold | EC50 (hPAR2 [3]; 1321N1-hPAR2 cells, mean ± s.e.m., read-out: IP1 pEC50 (converted)): 200 nM
